From ChEMBL document CHEMBL3797132, “State of affairs: Design and structure-activity relationships of reversible P2Y12 receptor antagonists” (Bioorg Med Chem Lett, 2016)
Values belong to the compound of their own block, whether it stands above or below them.

Experiments:
P2Y purinoceptor 12 [1] = target: T1, P2Y purinoceptor 12 (Homo sapiens, UniProt Q9H244); experiment: Displacement of [3H]-2-Mes-ADP from human P2Y12 receptor
[2] = Cmax in beagle dog at 10 mg/kg, po administered via oral gavage by LC/MS analysis; type: ADME, organism-based, Canis lupus familiaris; details: in vivo
[3] = Terminal half life in beagle dog at 10 mg/kg, po administered via oral gavage by LC/MS analysis; type: ADME, organism-based, Canis lupus familiaris; details: in vivo, read-out: beta t1/2 (converted)
P2Y purinoceptor 12 [4] = target: T1, P2Y purinoceptor 12; experiment: Binding affinity to P2Y12 receptor (unknown origin)
[5] = Oral bioavailability in rat; type: ADME, organism-based; details: in vivo
P2Y purinoceptor 12 [6] = target: T1, P2Y purinoceptor 12; experiment: Antagonist activity at P2Y12 receptor (unknown origin) by GTPgammaS binding assay; type: functional
[7] = Clearance in rat; type: ADME, organism-based; details: in vivo
P2Y purinoceptor 12 [8] = target: T1, P2Y purinoceptor 12; experiment: Displacement of [3H]-2-Mes-ADP from human P2Y12 receptor in platelets by scintillation counter
P2Y purinoceptor 12 [9] = target: T1, P2Y purinoceptor 12; experiment: Antagonist activity at P2Y12 receptor (unknown origin)

T1 sequence (Q9H244 whole entry): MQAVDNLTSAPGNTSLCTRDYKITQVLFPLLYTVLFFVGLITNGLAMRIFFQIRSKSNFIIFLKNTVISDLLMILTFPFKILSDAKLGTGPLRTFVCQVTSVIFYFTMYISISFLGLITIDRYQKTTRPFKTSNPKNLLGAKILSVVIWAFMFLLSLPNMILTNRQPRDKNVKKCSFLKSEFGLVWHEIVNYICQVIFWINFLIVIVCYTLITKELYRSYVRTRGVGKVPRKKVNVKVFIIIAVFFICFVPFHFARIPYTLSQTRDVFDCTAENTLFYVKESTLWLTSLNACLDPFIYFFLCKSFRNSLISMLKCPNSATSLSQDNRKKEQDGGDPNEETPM

SMILES: CCOC(=O)c1cc(C#N)c(N2CCN(C(=O)NS(=O)(=O)c3ccc(Cl)s3)CC2)nc1C
IC50 (P2Y purinoceptor 12 [4]): 40 nM
bioavailability [5]: 15%
IC50 (P2Y purinoceptor 12 [6]): 70 nM
clearance [7]: 16 mL/min/kg

SMILES: CCOC(=O)c1cc(C#N)c(N2CC(C(=O)NS(=O)(=O)c3ccc(Cl)s3)C2)nc1C
IC50 (P2Y purinoceptor 12 [4]): 60 nM
clearance [7]: 3 mL/min/kg

SMILES: CCc1cnc(-c2cc(C#N)c(N3CC(C(=O)NS(=O)(=O)c4ccc(Cl)s4)C3)nc2C)o1
IC50 (P2Y purinoceptor 12 [4]): 440 nM
IC50 (P2Y purinoceptor 12 [6]): 22 nM
clearance [7]: 16 mL/min/kg

SMILES: CCCSc1nc(N[C@@H]2C[C@H]2c2ccc(F)c(F)c2)c2nnn([C@@H]3C[C@H](OCCO)[C@@H](O)[C@H]3O)c2n1 [TICAGRELOR]
IC50 (P2Y purinoceptor 12 [9]): 5.01 nM

Results, then the compound that gave them:

IC50 (P2Y purinoceptor 12 [1]): 29 nM
Cmax [2]: 14 µM
half-life [3]: 0.2 h
SMILES: CCOC(=O)N1CCN(C(=O)[C@H](CCC(=O)O)NC(=O)c2cc(OC(C)(C)C(=O)OCC)c3ccc(C)cc3n2)CC1

IC50 (P2Y purinoceptor 12 [1]): 5.3 nM
half-life [3]: 7 h
SMILES: CCOC(=O)N1CCN(C(=O)[C@H](CCC(=O)O)NC(=O)c2cc(OC(C)(C)C(=O)O)c3ccc(C)cc3n2)CC1

IC50 (P2Y purinoceptor 12 [8]): < 10 nM
SMILES: CNc1cc2[nH]c(=O)n(-c3ccc(NC(=O)NS(=O)(=O)c4ccc(Cl)s4)cc3)c(=O)c2cc1F [ELINOGREL]
